Experiments:
Assay in all cases: relative viability (nuclei count vs DMSO), 5 days (fraction); higher = more cells survive
Halofuginone + Foretinib = compound: O=C(C[C@H]1NCCC[C@@H]1O)Cn1cnc2cc(Br)c(Cl)cc2c1=O (racemic) [Halofuginone] + COc1cc2c(Oc3ccc(NC(=O)C4(C(=O)Nc5ccc(F)cc5)CC4)cc3F)ccnc2cc1OCCCN1CCOCC1 [Foretinib] (partner 0.25 µM)
In short: (§1)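 One day after seeding in 1536-well plates, lung cancer cell lines were dosed by pin tool. Dosing was either single-drug or a fixed anchor-drug dose plus five library-drug doses (not always all listed) in √10 steps. After 5 days, nuclei were stained in one fix-and-stain step and counted on 4× images, and relative viability is the nuclei count of treated wells over that of vehicle wells, given as the median of duplicate plates.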

Halofuginone + Lapatinib = compound: O=C(C[C@H]1NCCC[C@@H]1O)Cn1cnc2cc(Br)c(Cl)cc2c1=O (racemic) [Halofuginone] + CS(=O)(=O)CCNCc1ccc(-c2ccc3ncnc(Nc4ccc(OCc5cccc(F)c5)c(Cl)c4)c3c2)o1 [Lapatinib] (partner 2 µM)
In short: as §1

Halofuginone + AZD7762 = compound: O=C(C[C@H]1NCCC[C@@H]1O)Cn1cnc2cc(Br)c(Cl)cc2c1=O (racemic) [Halofuginone] + NC(=O)Nc1cc(-c2cccc(F)c2)sc1C(=O)N[C@H]1CCCNC1 [AZD7762] (partner 0.2 µM)
In short: as §1

[1] = compound: O=C(C[C@H]1NCCC[C@@H]1O)Cn1cnc2cc(Br)c(Cl)cc2c1=O (racemic) [Halofuginone] + O=C(CCCCCCC(=O)Nc1ccccc1)NO [Vorinostat] (partner 1 µM)
In short: as §1

| Cell Line | relative viability (Halofuginone + Foretinib; first compound 0.001 µM) | relative viability (Halofuginone + Foretinib; first compound 0.003162 µM) | relative viability (Halofuginone + Foretinib; first compound 0.01 µM) | relative viability (Halofuginone + Foretinib; first compound 0.03162 µM) | relative viability (Halofuginone + Foretinib; first compound 0.1 µM) | relative viability (Halofuginone + Lapatinib; first compound 0.001 µM) | relative viability (Halofuginone + Lapatinib; first compound 0.003162 µM) | relative viability (Halofuginone + Lapatinib; first compound 0.01 µM) | relative viability (Halofuginone + Lapatinib; first compound 0.03162 µM) | relative viability (Halofuginone + Lapatinib; first compound 0.1 µM) | relative viability (Halofuginone + AZD7762; first compound 0.001 µM) | relative viability (Halofuginone + AZD7762; first compound 0.003162 µM) | relative viability (Halofuginone + AZD7762; first compound 0.01 µM) | relative viability (Halofuginone + AZD7762; first compound 0.03162 µM) | relative viability (Halofuginone + AZD7762; first compound 0.1 µM) | relative viability ([1]; first compound 0.001 µM) | relative viability ([1]; first compound 0.003162 µM) | relative viability ([1]; first compound 0.01 µM) | relative viability ([1]; first compound 0.03162 µM) | relative viability ([1]; first compound 0.1 µM) |
| --- | --- | --- | --- | --- | --- | --- | --- | --- | --- | --- | --- | --- | --- | --- | --- | --- | --- | --- | --- | --- |
| EBC-1 | 0.106 | 0.112 | 0.108 | 0.104 | 0.104 | 0.223 | 0.247 | 0.233 | 0.266 | 0.245 |  |  |  |  |  |  |  |  |  |  |
| EKVX | 0.806 | 0.794 | 0.947 | 0.794 | 0.293 | 0.22 | 0.213 | 0.183 | 0.203 | 0.202 | 0.721 | 0.615 | 0.692 | 0.784 | 0.496 | 0.787 | 0.729 | 0.729 | 0.693 | 0.572 |
| EMC-BAC-2 | 1.06 | 0.972 | 0.986 | 0.78 | 0.423 | 0.952 | 0.888 | 0.86 | 0.89 | 0.807 | 1.17 | 1.2 | 1.06 | 1.12 | 0.842 | 0.592 | 0.491 | 0.447 | 0.334 | 0.14 |
| EPLC-272H | 0.792 | 0.742 | 0.736 | 0.78 | 0.72 | 0.891 | 0.851 | 0.976 | 0.958 | 0.907 | 0.208 | 0.0783 | 0.216 | 0.215 | 0.19 | 0.479 | 0.401 | 0.304 | 0.411 | 0.382 |
| H3255 | 0.748 | 0.849 | 0.825 | 1.01 | 0.856 | 0.272 | 0.255 | 0.241 | 0.259 | 0.235 | 1.05 | 0.777 | 0.871 | 0.844 | 0.876 | 0.852 | 0.818 | 0.761 | 0.819 | 0.818 |
| HARA | 0.997 | 0.954 | 0.934 | 0.896 | 0.493 | 0.705 | 0.637 | 0.721 | 0.667 | 0.555 | 0.279 | 0.506 | 0.391 | 0.305 | 0.304 | 0.587 | 0.675 | 0.512 | 0.697 | 0.51 |
| HCC-15 | 1.02 | 1.1 | 1.05 | 0.967 | 0.787 | 0.88 | 0.887 | 0.829 | 0.863 | 0.785 | 1.19 | 1.26 | 1 | 1.18 | 1.2 | 0.848 | 0.866 | 0.902 | 0.876 | 0.85 |
| HCC-44 |  |  |  |  |  | 1.02 | 1.01 | 0.955 | 0.997 | 0.808 | 1.06 | 1.01 | 1.02 | 1.03 | 1.05 | 1.15 | 1.14 | 1.17 | 1.2 | 1.05 |
| HCC-78 | 0.593 | 0.635 | 0.488 | 0.684 | 0.552 | 0.931 | 0.698 | 0.707 | 0.903 | 0.137 | 0.657 | 0.672 | 0.55 | 0.652 | 0.643 | 0.675 | 0.459 | 0.391 | 0.426 | 0.367 |
